This is an account of results in publication PMC11868579 (Nature Communications, 2024).

Each structure is given as a SMILES string.

Experiment [1] deals with eIF4E WT or mutant expression. The experiment can be described thus: Immunoblot of eIF4E rescue construct expression. The following applies: n=3. It counts as cell-based, human. The source says:
Supplementary Fig. 17. Transfection of wild type eIF4E or a series of mutants […]
clone. a Scheme of the workflow to generate genetic rescue models by expression of wild type (WT) eIF4E or mutant eIF4E in the dTAG eIF4E CRISPR clones (Created in BioRender. Powers, M. (2024) https://BioRender.com/q02f176). b Representative […]
replicates). Vinculin was used as a loading control. The immunoblots were cropped to […]
(1 picture or pasted object on this page, not shown here) […]
aid interpretation of the data, original immunoblot images for all repeats are available in the Supplementary Source Data. d Quantification of MCL1 immunoblot signals using Image J. Results are expressed as % MCL-1 normalized to vinculin (mean ± SEM from (c) plus 2 additional biological replicates (see Supplementary Source Data).
Significance (p<0.05) was determined using a one sample t-test (two-tailed) comparing treatment with the control from each cell line. Significance was observed […]
p=0.0153) expressing cells. p values are denoted as *p<0.05, **p<0.01, ***p<0.001, […]
and f 16 hr from (c), using Image J. A one sample t -test was performed for each cell treatment compared to their control and found no significant differences for either tim e point (p>0.05) . Comparison of the control conditions for expression of each mutant with the overexpressed WT using an ordinary one-way ANOVA with Tukey multiple comparisons test found all mutants p<0.001 except S209A (p=0.0337) at 6 hr and all

Another experiment has as its target T1, eIF4E (Homo sapiens, UniProt P06730).
T1 construct: endogenous in cells; host or cells: H1299
The experiment can be described thus: CETSA in intact H1299 cells. The following applies: 6 hrs; for eIF4E stabilisation, eIF4E normalised to vinculin relative to average control (plotted on graph), Average: H1299, 57 °C, control = 1.000. Type of experiment: cell-based. How it is done:
Cells (1.5 × 10^6 cells) were plated into 75 cm^2 flasks and allowed to attached overnight. After treatment with compound 4 or 5 for 6 h, they were harvested by trypsinisation and washed x2 in ice cold PBS. Cells were resuspended in 1 ml of cold PBS supplemented with protease and phosphatase inhibitors (Fisher Scientific, cat#1861281). Resuspended cells were divided into 100 μl aliquots and centrifuged at 300 x g for 3 min at 4 °C. Following centrifugation, 75μl of supernatant was removed and cells resuspended in the remaining volume. Cell suspensions were heated at 40.9, 43.7, 48.1, 52.9, 57.6, 62.4, 67.2, 71.9, 76.3 and 79.1 °C for 3 mins followed by cooling at 20 °C for 3 min[25]. Suspensions were freeze-thawed twice using liquid nitrogen. Soluble fractions were separated from cell debris by centrifuging at 20,000 x g for 30 min at 4 °C. Samples were then analysed by Western Blot.

In the next experiment the test system is c-Myc-activity. The experiment can be described thus: c-Myc-regulated luciferase reporter in SW620 cells. It counts as cell-based, human. Conditions: for c-Myc, Average / CMV, Average: SW620; for c-Myc, Average: c-Myc-regulated firefly luciferase reporter; for CMV, Average: constitutive CMV promoter-regulated renilla luciferase reporter. As to the method:
Luminescence was measured using the Dual-glo luciferase assay (mean ± SEM from 3 biological replicates). b SW620 cells were transfected with a c-Myc-regulated firefly luciferase expression reporter or a constitutive CMV promoter-regulated renilla luciferase reporter. Cells were treated for 24 hr with 1 or 10 µM compound 4 or the […] kinase inhibitor AZD8055 as positive control (mean ± SEM from 3 biological replicates). An ordinary one-way ANOVA with Tukey multiple comparisons test was performed comparing c-Myc-regulated firefly luciferase expression or CMV-regulated Renilla luciferase expression following the different treatments. For c-Myc-regulated firefly luciferase expression, all significant p values […]
were <0.0001. […]
Source data is located in the Supplementary Source Data file

T1 sequence (P06730 whole entry): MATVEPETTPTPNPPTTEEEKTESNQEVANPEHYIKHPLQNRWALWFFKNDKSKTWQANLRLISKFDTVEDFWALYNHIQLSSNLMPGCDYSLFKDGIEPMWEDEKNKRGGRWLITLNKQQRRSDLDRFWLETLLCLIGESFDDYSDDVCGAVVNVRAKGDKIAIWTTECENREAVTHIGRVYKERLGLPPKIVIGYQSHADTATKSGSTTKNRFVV

Regarding `CC[C@H](C(=O)N1CCCC[C@H]1C(=O)O[C@H](CCc1ccc(OC)c(OC)c1)c1ccccc1OCC(=O)NCCCCCCC(=O)N[C@H](C(=O)N1C[C@H](O)C[C@H]1C(=O)N[C@@H](C)c1ccc(-c2scnc2C)cc1)C(C)(C)C)c1cc(OC)c(OC)c(OC)c1` [dTAG^V-1], the “Quantification of eIF4E (6 hr) normalised to WT expression, Average” value in experiment [1] (C3-1, 0.5 uM) was 0.00; in experiment [1] (C3-1, 1 uM), 0.00; in experiment [1] (L85R, 0.5 uM), 51.11; in experiment [1] (L85R, 1 uM) it was 46.78; in experiment [1] (L134R, 0.5 uM), 32.49; in experiment [1] (L134R, 1 uM), 23.94. The “Quantification of eIF4E (6 hr) normalised to WT expression, Average” value in experiment [1] (S209A, 0.5 uM) worked out at 94.19; in experiment [1] (S209A, 1 uM), 88.26; in experiment [1] (W56A, 0.5 uM), 56.71; in experiment [1] (W56A, 1 uM) it was 52.12; in experiment [1] (W73F/L85R, 0.5 uM), 30.95; in experiment [1] (W73F/L85R, 1 uM) it was 30.11. Besides, the “Quantification of eIF4E (6 hr) normalised to WT expression, Average” value is recorded as 72.55 in experiment [1] (W73F, 0.5 uM); 71.88 in experiment [1] (W73F, 1 uM); 100.00 in experiment [1] (WT, 0.5 uM); 100.00 in experiment [1] (WT, 1 uM). Besides, the “Quantification of eIF4E (16 hr) normalised to WT expression, Average” value turned out to be 0.00 in experiment [1] (C3-1, 0.5 uM); 0.00 in experiment [1] (C3-1, 1 uM); 19.14 in experiment [1] (L85R, 0.5 uM); 21.33 in experiment [1] (L85R, 1 uM); 17.61 in experiment [1] (L134R, 0.5 uM); 19.17 in experiment [1] (L134R, 1 uM). The “Quantification of eIF4E (16 hr) normalised to WT expression, Average” value in experiment [1] (S209A, 0.5 uM) is 103.66; in experiment [1] (S209A, 1 uM), 106.16; in experiment [1] (W56A, 0.5 uM (Conc column empty, by row)) it was 63.22; in experiment [1] (W56A, 1 uM (Conc column empty, by row)) it was 50.88; in experiment [1] (W73F/L85R, 0.5 uM) it was 15.77; in experiment [1] (W73F/L85R, 1 uM), 16.64. The “Quantification of eIF4E (16 hr) normalised to WT expression, Average” value was determined as 42.45 in experiment [1] (W73F, 0.5 uM); 30.23 in experiment [1] (W73F, 1 uM); 100.00 in experiment [1] (WT, 0.5 uM); 100.00 in experiment [1] (WT, 1 uM).
As a reminder, the EC50 is the midpoint of the concentration-response curve. `CC[C@H](O[C@H](C)CO)c1ccc(-c2ccccc2F)cc1NCCO` [Compound 4]: the “eIF4E stabilisation, eIF4E normalised to vinculin relative to average control (plotted on graph), Average” value is 1.140 at eIF4E (0.5 μM), 1.298 on eIF4E (1 μM), 1.771 on eIF4E (5 μM) and 2.067 at eIF4E (10 μM). The “protection of eIF4E from thermal denaturation” value at eIF4E (H1299 cells, 50 µM) is recorded as “protected eIF4E from thermal denaturation”. On eIF4E (read-out: EC50, thermal protection of eIF4E (target engagement), intact H1299 cells, 57.6 °C), the EC50 stood at 2000 nM. In addition, the results for the “c-Myc, Average” value in the experiment on c-Myc-activity (1μM) and with c-Myc-activity (10μM) were 80.09 and 67.68, respectively. Further, the “CMV, Average” value in the experiment with c-Myc-activity (1μM) was found to be 89.27; in the experiment on c-Myc-activity (10μM), 82.92. The “activity in c-Myc reporter assay” value in the experiment with c-Myc-activity (SW620 cells, 1 or 10 µM, 24 hr) was “showed no activity”.
